# Laboratory results taken from US12085575B2, “Compositions and methods for detecting proteinopathies” (BOARD OF SUPERVISORS OF LOUISIANA STATE UNIVERSITY AND …, priority 2011, dated 2024).
# Columns and labels:
# Type in all cases: cell-based, human
# Mfn2 [1] = assay: Mfn2 modification and degradation in A-T/LV shRNA cells treated with mitochondrial depolarizing agents
# Method: Immunoblotting Analysis of Mitochondrial Proteins—Mitochondria were isolated from A-T/LV control and ISG15 shRNA cells using the Miochondrial Isolation Kit (Thermo Scientific Company, 89874). The Dounce homogenization protocol described by the manufacturer was used to isolate mitochondria from cells. Mitochondrial pellets were resuspended in lysis buffer containing 50 mM Tris pH 7.5 and 4% (v/v) SDS. Samples were homogenized and boiled for 10 min. Lysates containing equal protein were then mixed with 6× Laemmli SDS sample buffer (3× final concentration). Samples were boiled again and mitochondrial proteins were analyzed by SDS-PAGE. Immunoblotting analyses using either anti-ISG15 (raised against human ISG15) (20), anti-ubiquitin (gift from Dr. Arthur Haas, at LSUHSC—New Orleans), or anti-mitofusin 2 (Abcam, ab88569) antibodies were carried out using the ECL Western procedure (Pierce, 34076) and the BioRad VersaDoc Imaging System (BioRad). Immunoblotting Analysis of HA Polyubiquitylated Proteins in Cells: Cells were transfected with HA-ubiquitin using the PolyFect transfection reagent (Qiagen, 301105). Twenty four hours after transfection, mitochondria were isolated as described above. Mitochondrial lysis, SDS-PAGE, and immunoblotting analysis to detect HA-ubiquitin conjugated proteins using anti-HA antibodies were carried out as described above. Immunoblotting Analysis of Mfn2 in Cells: Cells were lysed in lysis buffer containing 50 mM Tris-HCl, pH 7.5, 2% SDS, and protease inhibitor cocktail. Lysates were sonicated, boiled, and cleared by centrifugation. Lysates containing equal protein were then mixed with 6× Laemmli SDS sample buffer (3× final concentration). Samples were boiled again and proteins were separated by 15% SDS-PAGE. Immunoblotting analysis was carried out using anti-Mfn2 antibodies (Abcam) as described above. Intensity of the Mfn2 bands was quantitated using BioRad Quantity One software. Statistical analysis—Statistical analysis was carried out using GraphPad software.
# Many outer mitochondrial membrane (OMM) proteins are ubiquitylated and degraded via the 26S proteasome prior to mitophagy in cells treated with the mitochondrial depolarizing agents (28,29). To test whether ISG15 inhibits polyubiquitylation of OMM proteins, we assessed the fate of Mfn2, an OMM protein and proteasome substrate, in A-T/LV-control and A-T/LV-ISG15-silenced cells treated with two different mitochondrial depolarizing agents, valinomycin and carbonylcyanide m-chlorophenylhydrazone (CCCP). Consistent with the literature reports (29,35,36), we observed a ladder of high molecular weight anti-Mfn2 cross-reactive bands above the 86 kDa Mfn2 protein band that is reminiscent of polyubiquitylation, in both ISG15-silenced and ISG15 overexpressing A-T cells (FIGS. 34 A and B, left panels). The endogenous level of these high molecular weight Mfn2 cross-reactive bands was remarkably higher in ISG15-silenced as compared to the ISG15-overexpressing A-T cells in the absence of any drugs (FIGS. 34A and B, first panels, compare lanes 1 and 4). […] In contrast, the level of these Mfn2 cross-reactive high molecular weight bands decreased under the same drug treatment conditions in ISG15-silenced A-T cells (FIGS. 34A and B, first panels, lanes 4-6, and the accompanying bar graph in the second panel for quantitation). […] The bar graphs in FIGS. 34A and B, third panels, show mean values of the ratio between free Mfn2 (86 kDa band) and actin proteins (±SEM) in CCCP-treated A-T/LV-control and ISG15 shRNA cells measured from eight independent experiments, and valinomycin-treated A-T/LV-control and ISG15 shRNA cells measured from three independent experiments respectively.
# Mfn2 [2] = assay: MFN2 modification and degradation in HEK293 cells treated with CCCP; conditions: HEK cells, CCCP 10 μM, 24 h
# Description: MFN2 is conjugated to SUMO-1/2/3 and ubiquitin, and is degraded in HEK293 cells treated with CCCP. We confirmed CCCP-induced MFN2-SUMO/ubiquitin modification and degradation in “normal” HEK293 cells. […] However, CCCP-mediated decrease in MFN2 was proteasome-dependent (FIG. 37D). Together, our results using A-T and HEK293 cells reveal that MFN2 is SUMOylated in response to CCCP treatment.
# [3] = system: polyubiquitylated proteins; assay: Camptothecin-induced degradation of polyubiquitylated proteins in A-T cells; conditions: CPT 10 μm, 24 hr
# Method: To test the generality of this observation, the anticancer drug camptothecin (CPT), a genotoxic agent (37, 48-50), which is known to sensitize A-T cells (37), like UV, was used to induce degradation of polyubiquitylated proteins in A-T cells. In FIG. 8E, A-T cells were treated with camptothecin (CPT; 10 μm) in the presence or absence of Bafl (1 nm) for 24 hr. Ubiquitin conjugated proteins using anti-ubiquitin antibodies were detected as described herein for FIG. 8A. The experiment was repeated three times.
Compound,free MFN2 protein level (Mfn2 [1]; CCCP-treated ISG15 overexpressing A-T cells),"decrease in the free MFN2 level (Mfn2 [1]; ISG15-silenced A-T cells, CCCP 24 h, cell lysates and immunoprecipitates) [%]","free Mfn2 protein level (Mfn2 [1]; ISG15 overexpressing A-T cells, 24 hr)","conjugation of SUMO-1, SUMO-2/3, and ubiquitin to MFN2 (Mfn2 [2])",degradation of MFN2 (Mfn2 [2]) [%],degradation of endogenous polyubiquitylated proteins [3]
"N#CC(C#N)=NNc1cccc(Cl)c1 [CCCP, carbonylcyanide m-chlorophenylhydrazone]",remained unaffected,20,slightly increased,induces conjugation,20,–
"CC[C@@]1(O)C(=O)OCc2c1cc1n(c2=O)Cc2cc3ccccc3nc2-1 [CPT, camptothecin]",–,–,–,–,–,induced degradation
